Laboratory results published in ChEMBL document CHEMBL1131787, “Effects of ortho-substituent groups of sulochrin on inhibitory activity to eosinophil degranulation” (Bioorg Med Chem Lett, 1999).

Assay: Inhibitory activity against eosinophil degranulation
Assay type: functional

| Compound | IC50 |
| --- | --- |
| COc1cc(O)ccc1C(=O)c1c(O)cc(C)cc1O | > 10000 nM |
| CCCCOC(=O)c1cc(O)cc(OC)c1C(=O)c1c(O)cc(C)cc1O | 40 nM |
| COC(=O)c1cc(O)cc(O)c1C(=O)c1c(O)cc(C)cc1OC | 400 nM |
| CCCOC(=O)c1cc(O)cc(OC)c1C(=O)c1c(O)cc(C)cc1O | 100 nM |
| COC(=O)c1cc(O)cc(O)c1C(=O)c1c(OC)cc(C)cc1OC | > 10000 nM |
| CCOC(=O)c1cc(O)cc(OC)c1C(=O)c1c(O)cc(C)cc1O | 100 nM |
| CCCCCCOC(=O)c1cc(O)cc(OC)c1C(=O)c1c(O)cc(C)cc1O | 300 nM |
| COC(=O)c1cc(O)cc(OC)c1C(=O)c1c(OCCO)cc(C)cc1OCCO | > 10000 nM |
| CCC(C)OC(=O)c1cc(O)cc(OC)c1C(=O)c1c(O)cc(C)cc1O (stereo not drawn) | 30 nM |
| COC(=O)c1cc(O)cc(O)c1C(=O)c1c(O)cc(C)cc1O | > 10000 nM |
| COC(=O)c1cc(O)cc(OC)c1C(=O)c1c(O)cc(C)cc1OC | 300 nM |
| COc1cc(O)cc(C(=O)O)c1C(=O)c1c(O)cc(C)cc1O | > 10000 nM |
| COC(=O)c1cc(O)cc(OC)c1C(=O)c1c(O)cc(C)cc1O [SULOCHRIN] | 100 nM |
